Target: T1, BACE1 (Homo sapiens, UniProt P56817)
T1 construct: endogenous in cells; host or cells: HEK-293 cells stably transfected with wild type APP695
Experiment: Cellular BACE1 Inhibition Assay (in vitro cellular Amyloidβ 1-40 production, HTRF immunoassay)
Format: cell-based
Settings: inhibition of Amyloidβ 1-40 production; HEK-293 cells stably transfected with wild type APP695; 48 hours incubation; single assay or mean of multiple assays
Experimental: The BACE inhibition properties of the compounds of the invention may be determined by the following in vitro cellular Amyloidβ 1-40 production assay.
Inhibition of Amyloidβ 1-40 production was determined by incubating cells with compound for 48 hours and quantifying the level of Amyloidβ 1-40 using an homogeneous time-resolved fluorescence (“HTRF”) immunoassay.
Materials and Methods: HEK-293 cells stably transfected with a DNA construct containing the coding sequence for the wild type APP695 sequence were grown in Dulbecco's Modified Eagle Medium (“DMEM”) supplemented with 10% fetal bovine serum, penicillin/streptomycin and 150 μg/mL G418. Cells were plated in 96-well plates at 35,000 cells/well and allowed to attach for 8-12 hours. Media was changed to DMEM supplemented with 10% fetal bovine serum, penicillin/streptomycin 15 minutes prior to compound addition. Diluted compounds were then added at a final concentration of 0.5% DMSO. After 48 hours, 4 μL of media from each well was added to a corresponding well of a 384 well plate (Perkin Elmer Cat#6008280) containing the HTRF reagents. HTRF reagents were obtained from the CisBio Amyloidβ 1-40 peptide assay kit (Cat# 62B40PEC) and were prepared as follows anti-peptide β (1-40)-Cryptate and anti-peptide β (1-40)-XL655 were stored in 2 plate aliquots at −80° C. Diluent and Reconstitution buffer were stored at 4° C. Aliquots of the two antibodies were diluted 1:100 with Reconstitution buffer, and this mixture was diluted 1:2 with Diluent. 12 μL of the reagent mixture was added to the required wells of the 384 well assay plate. The assay plate was incubated at 4° C. for 17 hours and then analyzed for fluorescence at 665 and 620 nm. The reported IC50 below may be from a single assay or the mean of multiple assays.

T1 sequence (P56817 46-501): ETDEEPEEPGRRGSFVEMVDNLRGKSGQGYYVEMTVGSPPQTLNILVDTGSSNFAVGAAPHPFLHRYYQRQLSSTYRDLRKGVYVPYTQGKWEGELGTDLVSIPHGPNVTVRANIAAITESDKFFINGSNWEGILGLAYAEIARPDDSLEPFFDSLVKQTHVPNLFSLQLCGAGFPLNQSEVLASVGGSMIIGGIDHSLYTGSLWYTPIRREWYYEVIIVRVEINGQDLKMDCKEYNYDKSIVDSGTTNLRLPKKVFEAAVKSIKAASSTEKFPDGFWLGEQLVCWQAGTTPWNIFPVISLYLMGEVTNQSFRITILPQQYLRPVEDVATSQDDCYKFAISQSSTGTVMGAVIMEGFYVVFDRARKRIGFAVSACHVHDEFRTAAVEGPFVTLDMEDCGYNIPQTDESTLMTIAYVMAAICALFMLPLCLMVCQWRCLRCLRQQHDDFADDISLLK

SMILES	IC50 [nM]
C[C@H]1OCCC2Oc3ccc(-c4cncc(Cl)c4)cc3[C@]3(N=C(N)N(C)C3=O)[C@@H]21 (mixture of isomers) [Example 50, (1′R*,4R*,4a′R*,10a′R*)-2-amino-8′45-chloropyridin-3-yl)-1,1′-dimethyl-3′,4′,4a′,10a'-tetrahydro-1′H-spiro[imidazole-4,10′-pyrano[4,3-b]chromen]-5(1H)-one]	13.2
CN1C(=O)[C@]2(N=C1N)c1cc(-c3cccnc3F)ccc1O[C@@]1(C)CCCO[C@H]12 (racemic) [Example 55, (4S*,4a′S*,10a′S*)-2-amino-8′-(2-fluoropyridin-3-yl)-1,4a′-dimethyl-3′,4′,4a′,10a′-tetrahydro-2′H-spiro[imidazole-4,10′-pyrano[3,2-b]chromen]-5 (1H)-one]	18.3
CN1C(=O)C2(N=C1N)c1cc(-c3cccnc3F)ccc1O[C@H]1CCCC[C@H]12 (relative stereo) [Example 14, cis 2-amino-7′-(2-fluoropyridin-3-yl)-1-methyl-1′,2′,3′,4′,4a′,9a′-hexahydrospiro[imidazole-4,9′-xanthen]-5(1H)-one]	48.3
CN1C(=O)C2(N=C1N)c1cc(-c3cncc(Cl)c3)ccc1O[C@H]1CCCC[C@@H]12 (relative stereo) [Example 15, trans 2-amino-7′-(5-chloropyridin-3-yl)-1-methyl-1′,2′,3′,4′,4a′,9a′-hexahydrospiro[imidazole-4,9′-xanthen]-5(1H)-one]	8.6
CN1C(=O)C2(N=C1N)c1cc(-c3cc(F)cc(Cl)c3)ccc1O[C@H]1CCCC[C@H]12 (relative stereo) [Example 32, cis 2-amino-7′-(3-chloro-5-fluorophenyl)-1-methyl-1′,2′,3′,4′,4a′,9a′-hexahydrospiro[imidazole-4,9′-xanthen]-5(1H)-one]	426
CN1C(=O)C2(N=C1N)c1cc(-c3cncc(Cl)c3)ccc1O[C@H]1CCCC[C@H]12 (relative stereo) [Example 33, cis 2-amino-7′-(5-chloropyridin-3-yl)-1-methyl-1′,2′,3′,4′,4a′,9a′-hexahydrospiro[imidazole-4,9′-xanthen]-5(1H)-one]	32.2
CN1C(=O)[C@]2(N=C1N)c1cc(-c3cncc(Cl)c3)ccc1O[C@]1(C)CCCO[C@H]12 (relative stereo) [Example 62, (4S*,4a′R*,10a′S*)-2-amino-8′-(5-chloropyridin-3-yl)-1,4a′-dimethyl-3′,4′,4a′,10a′-tetrahydro-2′H-spiro[imidazole-4,10′-pyrano[3,2-b]chromen]-5(1H)-one]	2.3
CN1C(=O)[C@]2(N=C1N)c1cc(-c3cccc(C#N)c3)ccc1O[C@]1(C)CCCO[C@H]12 (relative stereo) [Example 63, 3-((4S*,4a′R*,10a′S*)-2-amino-1,4a′-dimethyl-5-oxo-1,3′,4′,4a′,5,10a′-hexahydro-2′H-spiro[imidazole-4,10′-pyrano[3,2-b]chromen]-8′-yl)benzonitrile]	4.3
CN1C(=O)[C@]2(N=C1N)c1cc(-c3cccnc3F)ccc1O[C@@]1(C)CCCO[C@@H]12 (relative stereo) [Example 64, (4S*,4a′S*,10a′R*)-2-amino-8′-(2-fluoropyridin-3-yl)-1,4a′-dimethyl-3′,4′,4a′,10a′-tetrahydro-2′H-spiro[imidazole-4,10′-pyrano[3,2-b]chromen]-5(1H)-one]	1.8
CN1C(=O)C2(N=C1N)c1cc(-c3cc(F)cc(Cl)c3)ccc1OC1CC(O)CCC12 (stereo not drawn) [Example 1, 2-amino-7′-(3-chloro-5-fluorophenyl)-3′-hydroxy-1-methyl-1′,2′,3′,4′,4a′,9a′-hexahydro spiro[imidazole-4,9′-xanthen]-5(1H)-one]	2
CN1C(=O)C2(N=C1N)c1cc(-c3cccc(Cl)c3)ccc1OC1CC(O)CCC12 (stereo not drawn) [Example 2, 2-amino-7′-(3-chlorophenyl)-3′-hydroxy-1-methyl-1′,2′,3′,4′,4a′,9a′-hexahydrospiro[imidazole-4,9′-xanthen]-5(1H)-one]	1.5
CN1C(=O)C2(N=C1N)c1cc(-c3cncc(Cl)c3)ccc1OC1CC(O)CCC12 (stereo not drawn) [Example 3, 2-amino-7′-(5-chloropyridin-3-yl)-3′-hydroxy-1-methyl-1′,2′,3′,4′,4a′,9a′-hexahydrospiro[imidazole-4,9′-xanthen]-5(1H)-one]	1.3
CN1C(=O)C2(N=C1N)c1cc(-c3cncc(C(F)(F)F)c3)ccc1OC1CC(O)CCC12 (stereo not drawn) [Example 5, 2-amino-3′-hydroxy-1-methyl-7′-(5-(trifluoromethyl)pyridin-3-yl)-1′,2′,3′,4′,4a′,9a′-hexahydrospiro[imidazole-4,9′-xanthen]-5(1H)-one]	6.1
CN1C(=O)C2(N=C1N)c1cc(-c3cncnc3)ccc1OC1CC(O)CCC12 (stereo not drawn) [Example 6, 2-amino-3′-hydroxy-1-methyl-7′-(pyrimidin-5-yl)-1′,2′,3′,4′,4a′,9a′-hexahydrospiro[imidazole-4,9′-xanthen]-5(1H)-one]	36.2
CN1C(=O)C2(N=C1N)c1cc(-c3cc(F)cc(Cl)c3)ccc1OC1CC(C)(O)CCC12 (stereo not drawn) [Example 7, 2-amino-7′-(3-chloro-5-fluorophenyl)-3′-hydroxy-1,3′-dimethyl-1′,2′,3′,4′,4a′,9a′-hexahydrospiro[imidazole-4,9′-xanthen]-5(1H)-one]	35.9
CN1C(=O)C2(N=C1N)c1cc(-c3cc(F)cc(Cl)c3)ccc1OC1CC(=O)CCC12 (stereo not drawn) [Example 8, 2-amino-7′-(3-chloro-5-fluorophenyl)-1-methyl-1′,4′,4a′,9a′-tetrahydrospiro[imidazole-4,9′-xanthene]-3′,5(1H, 2′H)-dione]	5.5
CN1C(=O)C2(N=C1N)c1cc(-c3cc(F)cc(Cl)c3)ccc1OC1CC3(CCC12)OCCO3 (stereo not drawn) [Example 10, 2″-amino-7′-(3-chloro-5-fluorophenyl)-1″-methyl-1″,2′,4′,4′a,5″,9′a-hexahydro-1′H-dispiro[1,3-dioxolane-2,3′-xanthene-9′,4″-imidazole]-5″-one]	168
CN1C(=O)C2(N=C1N)c1cc(-c3cc(F)cc(Cl)c3)ccc1OC1CCCC[C@@H]12 (stereo partly drawn) [Example 12]	11.4
CN1C(=O)C2(N=C1N)c1cc(-c3cncc(Cl)c3)ccc1OC1CC(F)(F)CCC12 (stereo not drawn) [Example 17, 2-amino-7′-(5-chloropyridin-3-yl)-3′,3′-difluoro-1-methyl-1′,2′,3′,4′,4a′,9a′-hexahydrospiro[imidazole-4,9′-xanthen]-5(1H)-one]	74.1
CN1C(=O)C2(N=C1N)c1cc(-c3cncnc3)ccc1OC1CC(F)(F)CCC12 (stereo not drawn) [Example 18, 2-amino-3′,3′-difluoro-1-methyl-7′-(pyrimidin-5-yl)-1′,2′,3′,4′,4a′,9a′-hexahydrospiro[imidazole-4,9′-xanthen]-5(1H)-one]	125
CN1C(=O)C2(N=C1N)c1cc(-c3cccnc3F)ccc1OC1CC(F)(F)CCC12 (stereo not drawn) [Example 19, 2-amino-3′,3′-difluoro-7′-(2-fluoropyridin-3-yl)-1-methyl-1′,2′,3′,4′,4a′,9a′-hexahydrospiro[imidazole-4,9′-xanthen]-5(1H)-one]	21.4
CN1C(=O)C2(N=C1N)c1cc(-c3cc(F)cc(Cl)c3)ccc1OC1CC(F)(F)CCC12 (stereo not drawn) [Example 20, 2-amino-7′-(3-chloro-5-fluorophenyl)-3′,3′-difluoro-1-methyl-1′,2′,3′,4′,4a′,9a′-hexahydrospiro[imidazole-4,9′-xanthen]-5(1H)-one]	172
CCOC1CCC2C(C1)Oc1ccc(-c3cc(F)cc(Cl)c3)cc1C21N=C(N)N(C)C1=O (stereo not drawn) [Example 28, 2-amino-7′-(3-chloro-5-fluorophenyl)-3′-ethoxy-1-methyl-l′,2′,3′,4′,4a′,9a′-hexahydrospiro[imidazole-4,9′-xanthen]-5(1H)-one]	51.2
CN1C(=O)C2(N=C1N)c1cc(-c3cc(F)cc(Cl)c3)ccc1OC1CC(OCC3CC3)CCC12 (stereo not drawn) [Example 29, 2-amino-7′-(3-chloro-5-fluorophenyl)-3′-(cyclopropylmethoxy)-1-methyl-1′,2′,3′,4′,4a′,9a′-hexahydrospiro[imidazole-4,9′-xanthen]-5(1H)-one]	554
COC1CC[C@@H]2[C@@H](C1)Oc1ccc(-c3cc(F)cc(Cl)c3)cc1C21N=C(N)N(C)C1=O (stereo partly drawn) [Example 30, (4a′R,9a′S)-2-amino-7′-(3-chloro-5-fluorophenyl)-3′-methoxy-1-methyl-1′,2′,3′,4′,4a′,9a′-hexahydrospiro[imidazole-4,9′-xanthen]-5(1H)-one]	22.3
CN1CC[C@@H]2Oc3ccc(-c4cc(F)cc(Cl)c4)cc3C3(N=C(N)N(C)C3=O)[C@@H]2C1 (stereo partly drawn) [Example 34, (4aS,10aS)-2′-amino-8-(3-chloro-5-fluorophenyl)-1′,2-dimethyl-1,2,3,4,4a,10a-hexahydrospiro[chromeno[3,2-c]pyridine-10,4′-imidazol]-5′(1′H)-one]	1670
CN1C(=O)C2(N=C1N)c1cc(-c3cccc(Cl)c3)ccc1OC1CC(F)(F)CCC12 (stereo not drawn) [Example 35, 2-amino-7′-(3-chlorophenyl)-3′,3′-difluoro-1-methyl-1′,2′,3′,4′,4a′,9a′-hexahydrospiro[imidazole-4,9′-xanthen]-5(1H)-one]	271

— patent publication US20120083501A1, “COMPOUNDS FOR TREATING NEURODEGENERATIVE DISEASES” (priority 2010, published 2012)
